This passage reports IC50 results from patent US20260015358A1, “BICYCLIC DERIVATIVES, COMPOSITIONS AND USES THEREOF” (Danatlas Pharmaceuticals Co., Ltd., priority 2023, published 2026).

The IC50 is the concentration that gives 50% inhibition. A higher IC50 goes with weaker potency.

Assay [1] has as its target T1, WRN [UniPro: Q14191 (WRN_HUMAN), N500-C946] (Homo sapiens (Human), UniProt Q14191). Nature of the assay: WRN unwinding assay (FORKF DNA, fluorescence). Format: biochemical. The settings on record: Table 14.
In assay [2] the target is T1, WRN [UniPro: Q14191 (WRN_HUMAN), N500-C946]. Nature of the assay: WRN ATPase assay (ADP-Glo). The class given is biochemical. As to conditions: WRN enzymatic activity assay. (ADP-Glo turns the ADP formed in a reaction into a luminescent signal.)

T1 sequence (Q14191 500-946): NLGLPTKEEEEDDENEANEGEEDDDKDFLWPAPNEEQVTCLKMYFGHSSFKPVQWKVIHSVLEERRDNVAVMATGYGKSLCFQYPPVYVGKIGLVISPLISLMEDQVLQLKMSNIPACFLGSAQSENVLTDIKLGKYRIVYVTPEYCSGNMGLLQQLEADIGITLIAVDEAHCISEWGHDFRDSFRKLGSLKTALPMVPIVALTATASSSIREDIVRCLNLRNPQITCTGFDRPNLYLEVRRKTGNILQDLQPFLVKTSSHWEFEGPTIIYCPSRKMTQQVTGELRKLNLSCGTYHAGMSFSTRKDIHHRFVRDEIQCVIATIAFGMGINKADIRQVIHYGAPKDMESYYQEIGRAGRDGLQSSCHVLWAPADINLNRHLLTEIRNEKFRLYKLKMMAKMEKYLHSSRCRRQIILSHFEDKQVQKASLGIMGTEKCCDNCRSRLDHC

As for `CCc1c(N2CCN(C(=O)CNC(=O)c3cnn4cccc4c3O)CC2)c(=O)n2nc(C3=CCOCC3)nc2n1CC(=O)Nc1ccc(C(F)(F)F)cc1Cl` [Example 109, N-(2-(4-(4-(2-((2-Chloro-4-(trifluoromethyl)phenyl)amino)-2-oxoethyl)-2-(3,6-dihydro-2H-pyran-4-yl)-5-ethyl-7-oxo-4,7-dihydro-[1,2,4]triazolo[1,5-a]pyrimidin-6-yl)piperazin-1-yl)-2-oxoethyl)-4-hydroxypyrrolo[1,2-b]pyridazine-3-carboxamide], the IC50 in assay [1] and in assay [2] was less than 100 nM in each case.
Turning to `CCc1c(N2CCN(C(=O)CNC(=O)c3ccccc3Cl)CC2)c(=O)n2nc(C3=CCOCC3)nc2n1CC(=O)Nc1ccc(C(F)(F)F)cc1Cl` [Example 111, 2-Chloro-N-(2-(4-(4-(2-((2-chloro-4-(trifluoromethyl)phenyl)amino)-2-oxoethyl)-2-(3,6-dihydro-2H-pyran-4-yl)-5-ethyl-7-oxo-4,7-dihydro-[1,2,4]triazolo[1,5-a]pyrimidin-6-yl)piperazin-1-yl)-2-oxoethyl)benzamide], the IC50 in assay [1] and in assay [2] was less than 100 nM each time.
For the molecule `CCc1c(N2CCN(C(=O)C(=O)Nc3cncs3)CC2)c(=O)n2nc(C3=CCOCC3)nc2n1CC(=O)Nc1ccc(C(F)(F)F)cc1Cl` [Example 334, 2-(4-(4-(2-((2-Chloro-4-(trifluoromethyl)phenyl)amino)-2-oxoethyl)-2-(3,6-dihydro-2H-pyran-4-yl)-5-ethyl-7-oxo-4,7-dihydro-[1,2,4]triazolo[1,5-a]pyrimidin-6-yl)piperazin-1-yl)-2-oxo-N-(thiazol-5-yl)acetamide], the 50% inhibitory concentration (IC50) in assay [1] and in assay [2] was less than 100 nM each time.
`CCc1c(N2CCN(C(=O)CNC(=O)c3cc(Cl)ccc3Cl)CC2)c(=O)n2nc(C3=CCOCC3)nc2n1CC(=O)Nc1ccc(C(F)(F)F)cc1Cl` [Example 126, 2,5-Dichloro-N-(2-(4-(4-(2-((2-chloro-4-(trifluoromethyl)phenyl)amino)-2-oxoethyl)-2-(3,6-dihydro-2H-pyran-4-yl)-5-ethyl-7-oxo-4,7-dihydro-[1,2,4]triazolo[1,5-a]pyrimidin-6-yl)piperazin-1-yl)-2-oxoethyl)benzamide]: the IC50 in assay [1] and in assay [2] was less than 100 nM each time.
As for `CCc1c(N2CCN(C(=O)C(=O)Nc3nccs3)CC2)c(=O)n2nc(N3CCN4C(=O)OC[C@H]4C3)nc2n1CC(=O)Nc1ccc(C(F)(F)F)cc1F` [Example 264, (R)-2-(4-(5-Ethyl-4-(2-((2-fluoro-4-(trifluoromethyl)phenyl)amino)-2-oxoethyl)-7-oxo-2-(3-oxotetrahydro-3H-oxazolo[3,4-a]pyrazin-7 (1H)-yl)-4,7-dihydro-[1,2,4]triazolo[1,5-a]pyrimidin-6-yl)piperazin-1-yl)-2-oxo-N-(thiazol-2-yl)acetamide], the half-maximal inhibitory concentration (IC50) in assay [1] and in assay [2] was less than 100 nM each time.
As for `CCc1c(N2CCN(C(=O)C(=O)Nc3cscn3)CC2)c(=O)n2nc(C3=CCOCC3)nc2n1CC(=O)Nc1ccc(C(F)(F)F)cc1Cl` [Example 335, 2-(4-(4-(2-((2-Chloro-4-(trifluoromethyl)phenyl)amino)-2-oxoethyl)-2-(3,6-dihydro-2H-pyran-4-yl)-5-ethyl-7-oxo-4,7-dihydro-[1,2,4]triazolo[1,5-a]pyrimidin-6-yl)piperazin-1-yl)-2-oxo-N-(thiazol-4-yl)acetamide], the 50% inhibitory concentration (IC50) in assay [1] was less than 100 nM; in assay [2], 100 to 1000 nM.
On the same counts, the results for `CCc1c(N2CCN(C(=O)c3n[nH]c(=O)[nH]c3=O)CC2)c(=O)n2nc(C3=CCOCC3)nc2n1CC(=O)Nc1ccc(C(F)(F)F)cc1Cl` [Example 22, N-(2-Chloro-4-(trifluoromethyl)phenyl)-2-(2-(3,6-dihydro-2H-pyran-4-yl)-6-(4-(3,5-dioxo-2,3,4,5-tetrahydro-1,2,4-triazine-6-carbonyl)piperazin-1-yl)-5-ethyl-7-oxo-[1,2,4]triazolo[1,5-a]pyrimidin-4(7H)-yl)acetamide] are less than 100 nM and less than 100 nM.
Take `CCc1c(N2CCN(C(=O)CNC(=O)CC3CCC3)CC2)c(=O)n2nc(C3=CCOCC3)nc2n1CC(=O)Nc1ccc(C(F)(F)F)cc1Cl` [Example 272, N-(2-Chloro-4-(trifluoromethyl)phenyl)-2-(6-(4-((2-cyclobutylacetyl)glycyl)piperazin-1-yl)-2-(3,6-dihydro-2H-pyran-4-yl)-5-ethyl-7-oxo-[1,2,4]triazolo[1,5-a]pyrimidin-4(7H)-yl)acetamide]: the half-maximal inhibitory concentration (IC50) in assay [1] and in assay [2] was less than 100 nM each time.
`CCc1c(N2CCN(C(=O)CNC(=O)c3ccc(F)c(F)c3O)CC2)c(=O)n2nc(C3=CCOCC3)nc2n1CC(=O)Nc1ccc(C(F)(F)F)cc1F` [Example 214, N-(2-(4-(2-(3,6-Dihydro-2H-pyran-4-yl)-5-ethyl-4-(2-((2-fluoro-4-(trifluoromethyl)phenyl)amino)-2-oxoethyl)-7-oxo-4,7-dihydro-[1,2,4]triazolo[1,5-a]pyrimidin-6-yl)piperazin-1-yl)-2-oxoethyl)-3,4-difluoro-2-hydroxybenzamide]: the half-maximal inhibitory concentration (IC50) in assay [1] and in assay [2] was less than 100 nM throughout.
As to `CCc1c(N2CCN(C(=O)CNC(=O)Cc3ccc(F)cc3)CC2)c(=O)n2nc(C3=CCOCC3)nc2n1CC(=O)Nc1ccc(C(F)(F)F)cc1Cl` [Example 177, N-(2-Chloro-4-(trifluoromethyl)phenyl)-2-(2-(3,6-dihydro-2H-pyran-4-yl)-5-ethyl-6-(4-((2-(4-fluorophenyl)acetyl)glycyl)piperazin-1-yl)-7-oxo-[1,2,4]triazolo[1,5-a]pyrimidin-4(7H)-yl)acetamide], the half-maximal inhibitory concentration (IC50) in assay [1] and in assay [2] was less than 100 nM in each case.
Consider `CCc1c(N2CCN(C(=O)C(=O)N3CCOCC3)CC2)c(=O)n2nc(C3=CCOCC3)nc2n1CC(=O)Nc1ccc(C(F)(F)F)cc1Cl` [Example 356, N-(2-Chloro-4-(trifluoromethyl)phenyl)-2-(2-(3,6-dihydro-2H-pyran-4-yl)-5-ethyl-6-(4-(2-morpholino-2-oxoacetyl)piperazin-1-yl)-7-oxo-[1,2,4]triazolo[1,5-a]pyrimidin-4(7H)-yl)acetamide], for which the 50% inhibitory concentration (IC50) in assay [1] and in assay [2] was more than 1000 nM each time.
Take `CCc1c(N2CCN(C(=O)c3ncnc4c(Cl)c[nH]c34)CC2)c(=O)n2nc(C3=CCOCC3)nc2n1CC(=O)Nc1ccc(C(F)(F)F)cc1Cl` [Example 44, N-(2-Chloro-4-(trifluoromethyl)phenyl)-2-(6-(4-(7-chloro-5H-pyrrolo[3,2-d]pyrimidine-4-carbonyl)piperazin-1-yl)-2-(3,6-dihydro-2H-pyran-4-yl)-5-ethyl-7-oxo-[1,2,4]triazolo[1,5-a]pyrimidin-4(7H)-yl)acetamide]: the IC50 in assay [1] and in assay [2] was 100 to 1000 nM throughout.
Turning to `CCc1c(N2CCN(C(=O)c3n[nH]c(=O)n(C)c3=O)CC2)c(=O)n2nc(C3=CCOCC3)nc2n1CC(=O)Nc1ccc(Cl)cc1C(F)(F)F` [Example 73, N-(4-Chloro-2-(trifluoromethyl)phenyl)-2-(2-(3,6-dihydro-2H-pyran-4-yl)-5-ethyl-6-(4-(4-methyl-3,5-dioxo-2,3,4,5-tetrahydro-1,2,4-triazine-6-carbonyl)piperazin-1-yl)-7-oxo-[1,2,4]triazolo[1,5-a]pyrimidin-4(7H)-yl)acetamide], the half-inhibitory concentration (IC50) in assay [1] and in assay [2] was less than 100 nM each time.
As for `CCc1c(N2CCN(C(=O)c3ncnc4[nH]ccc34)CC2)c(=O)n2nc(C3=CCOCC3)nc2n1CC(=O)Nc1ccc(Cl)cc1C(F)(F)F` [Example 69, 2-(6-(4-(7H-Pyrrolo[2,3-d]pyrimidine-4-carbonyl)piperazin-1-yl)-2-(3,6-dihydro-2H-pyran-4-yl)-5-ethyl-7-oxo-[1,2,4]triazolo[1,5-a]pyrimidin-4(7H)-yl)-N-(4-chloro-2-(trifluoromethyl)phenyl)acetamide], the half-maximal inhibitory concentration (IC50) is less than 100 nM in assay [1] and 100 to 1000 nM in assay [2].
With `CCc1c(N2CCN(C(=O)c3n[nH]c(=O)cc3O)CC2)c(=O)n2nc(C3=CCOCC3)nc2n1CC(=O)Nc1ccc(C(F)(F)F)cc1Cl` [Example 48, N-(2-Chloro-4-(trifluoromethyl)phenyl)-2-(2-(3,6-dihydro-2H-pyran-4-yl)-5-ethyl-6-(4-(4-hydroxy-6-oxo-1,6-dihydropyridazine-3-carbonyl)piperazin-1-yl)-7-oxo-[1,2,4]triazolo[1,5-a]pyrimidin-4(7H)-yl)acetamide], the concentration for half-maximal inhibition (IC50) in assay [1] and in assay [2] was less than 100 nM each time.
Consider `CCc1c(N2CCN(C(=O)CNC(=O)c3ccccc3F)CC2)c(=O)n2nc(C3=CCOCC3)nc2n1CC(=O)Nc1ccc(C)s1` [Example 153, N-(2-(4-(2-(3,6-Dihydro-2H-pyran-4-yl)-5-ethyl-4-(2-((5-methylthiophen-2-yl)amino)-2-oxoethyl)-7-oxo-4,7-dihydro-[1,2,4]triazolo[1,5-a]pyrimidin-6-yl)piperazin-1-yl)-2-oxoethyl)-2-fluorobenzamide], for which the IC50 was less than 100 nM in assay [1] and 100 to 1000 nM in assay [2].
As for `CCc1c(N2CCN(C(=O)c3ncc4ncsc4c3O)CC2)c(=O)n2nc(C3=CCOCC3)nc2n1CC(=O)Nc1ccc(C(F)(F)F)cc1Cl` [Example 195, N-(2-Chloro-4-(trifluoromethyl)phenyl)-2-(2-(3,6-dihydro-2H-pyran-4-yl)-5-ethyl-6-(4-(7-hydroxythiazolo[4,5-c]pyridine-6-carbonyl)piperazin-1-yl)-7-oxo-[1,2,4]triazolo[1,5-a]pyrimidin-4(7H)-yl)acetamide], the 50% inhibitory concentration (IC50) in assay [1] and in assay [2] was less than 100 nM throughout.
Take `CCc1c(N2CCN(C(=O)CNC(=O)c3ccccc3F)CC2)c(=O)n2nc(C3=CCOCC3)nc2n1CC(=O)Nc1ccc(C(F)(F)F)cc1Cl` [Example 97, N-(2-(4-(4-(2-((2-Chloro-4-(trifluoromethyl)phenyl)amino)-2-oxoethyl)-2-(3,6-dihydro-2H-pyran-4-yl)-5-ethyl-7-oxo-4,7-dihydro-[1,2,4]triazolo[1,5-a]pyrimidin-6-yl)piperazin-1-yl)-2-oxoethyl)-2-fluorobenzamide]: the IC50 in assay [1] and in assay [2] was less than 100 nM each time.
